According to article PMC7955167 (Structure(London, England:1993), 2021):

Key:
IRAK2 = target: T1, IRAK2 (Homo sapiens, UniProt O43187); experiment: thermal shift assay dose response with isothermal analysis at […]°C; assay type: binding
T1 construct: pseudokinase domain, residues 192-507
T1 sequence (O43187 192-507): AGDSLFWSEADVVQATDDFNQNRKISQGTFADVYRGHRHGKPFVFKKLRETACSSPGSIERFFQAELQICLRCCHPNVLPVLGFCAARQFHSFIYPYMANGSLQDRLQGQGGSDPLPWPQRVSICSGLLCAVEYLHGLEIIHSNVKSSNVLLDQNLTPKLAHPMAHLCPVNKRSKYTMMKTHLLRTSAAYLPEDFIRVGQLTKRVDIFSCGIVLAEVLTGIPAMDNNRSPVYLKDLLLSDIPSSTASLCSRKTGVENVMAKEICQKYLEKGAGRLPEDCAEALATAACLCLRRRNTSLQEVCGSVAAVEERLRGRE

IRAK3 = target: T2, IRAK3 (Homo sapiens, UniProt Q9Y616); experiment: as above; assay type: binding
T2 construct: pseudokinase domain, residues 145–454
T2 sequence (Q9Y616 145-454): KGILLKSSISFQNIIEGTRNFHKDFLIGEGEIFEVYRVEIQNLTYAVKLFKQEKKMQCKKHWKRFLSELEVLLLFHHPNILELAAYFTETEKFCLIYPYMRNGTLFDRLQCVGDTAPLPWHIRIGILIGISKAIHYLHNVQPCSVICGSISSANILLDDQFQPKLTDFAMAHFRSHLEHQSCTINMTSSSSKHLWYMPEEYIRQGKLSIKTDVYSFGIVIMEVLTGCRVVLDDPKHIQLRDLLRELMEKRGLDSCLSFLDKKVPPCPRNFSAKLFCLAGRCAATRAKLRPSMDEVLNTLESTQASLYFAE

[1] = target: the molecule itself; experiment: crystal structure; IRAK3_(145-454) at 7-10 mg/mL, 0.1 M citric acid pH 5.0, 1.62 M ammonium sulfate, 20°C, hanging drop; 2.9 Å; three molecules in the asymmetric unit
[2] = target: the molecule itself; experiment: SEC; analytical gel filtration, Superdex Increase 3.2/300, 20 mM HEPES pH 7.5, 200 mM NaCl, 10% glycerol, 1 mM DTT; 25 μl loaded at 1-5 mg/ml; fractions on SDS-PAGE; monomer to dimer

Nc1ncnc2c1ncn2[C@@H]1O[C@H](COP(=O)(O)OP(=O)(O)OP(=O)(O)O)[C@@H](O)[C@H]1O [ATP]
Kd (IRAK2): 9.8 ± 3.8 µM | Kd (IRAK3): ~196 µM

B1: IRAK3 pseudokinase domain (residues 145-454), wild type (domain or fragment, human, UniProt Q9Y616 145-454, looked up)
chain: KGILLKSSISFQNIIEGTRNFHKDFLIGEGEIFEVYRVEIQNLTYAVKLFKQEKKMQCKKHWKRFLSELEVLLLFHHPNILELAAYFTETEKFCLIYPYMRNGTLFDRLQCVGDTAPLPWHIRIGILIGISKAIHYLHNVQPCSVICGSISSANILLDDQFQPKLTDFAMAHFRSHLEHQSCTINMTSSSSKHLWYMPEEYIRQGKLSIKTDVYSFGIVIMEVLTGCRVVLDDPKHIQLRDLLRELMEKRGLDSCLSFLDKKVPPCPRNFSAKLFCLAGRCAATRAKLRPSMDEVLNTLESTQASLYFAE
notes: Interleukin-1 receptor associated kinase 3 (IRAK3), human, pseudokinase domain, residues 145-454; Construct 6His-TEV-GST-3C-IRAK3 145-454; the 6His-GST tag was cut off with PreScission protease; also called IRAK3_(145-454); IRAK3-PK; source: Sf21 insect cells (baculovirus), purified (Ni-NTA, GSH sepharose, PreScission cleavage, gel filtration); not shown: His6, N-terminal, cleaved; GST, …
stoichiometry N [1]: 2

B2: IRAK3 pseudokinase domain (residues 145-454) E214L (domain or fragment, human, UniProt Q9Y616 145-454, looked up)
chain: KGILLKSSISFQNIIEGTRNFHKDFLIGEGEIFEVYRVEIQNLTYAVKLFKQEKKMQCKKHWKRFLSELLVLLLFHHPNILELAAYFTETEKFCLIYPYMRNGTLFDRLQCVGDTAPLPWHIRIGILIGISKAIHYLHNVQPCSVICGSISSANILLDDQFQPKLTDFAMAHFRSHLEHQSCTINMTSSSSKHLWYMPEEYIRQGKLSIKTDVYSFGIVIMEVLTGCRVVLDDPKHIQLRDLLRELMEKRGLDSCLSFLDKKVPPCPRNFSAKLFCLAGRCAATRAKLRPSMDEVLNTLESTQASLYFAE
notes: IRAK3, human, pseudokinase domain, residues 145-454, with E214L; Construct 6His-TEV-GST-3C-IRAK3 145-454 E214L; PDB 6RUU holds the wild-type parent; also called IRAK3_(145-454) E214L; source: Sf21 insect cells (baculovirus), purified (Ni-NTA, GSH sepharose, PreScission cleavage, gel filtration); not shown: His6, N-terminal, cleaved; GST, N-terminal, cleaved
stoichiometry N [2]: 2
